Legend:
[1] = molecular target: Sodium-dependent dopamine transporter (Homo sapiens, UniProt Q01959); assay: GPCRScan assay: inhibition of DAT; set-up: radioligand conc. used [nm] 3.6 – 16.0, parental cells stable HEK
[2] = molecular target: Tyrosine-protein kinase ABL1 (Homo sapiens) (UniProt P00519); settings: Compound concentration 1000.0 nM
[3] = molecular target: Tyrosine-protein kinase BTK (Homo sapiens) (UniProt Q06187); settings: Compound concentration 1000.0 nM
[4] = molecular target: Cyclin-dependent kinase 11A (Homo sapiens) (UniProt Q9UQ88); settings: Compound concentration 1000.0 nM
[5] = molecular target: Serine/threonine-protein kinase DCLK2 (Homo sapiens) (UniProt Q8N568); settings: Compound concentration 1000.0 nM
[6] = molecular target: Mitogen-activated protein kinase kinase kinase 12 (Homo sapiens) (UniProt Q12852); settings: Compound concentration 1000.0 nM
[7] = test system: Epidermal growth factor receptor (Homo sapiens), P00533 [UNDEFINED MUTATION]; settings: Compound concentration 1000.0 nM
[8] = test system: Epidermal growth factor receptor (Homo sapiens), P00533 [L858R,T790M]; settings: Compound concentration 1000.0 nM
[9] = molecular target: Ephrin type-A receptor 2 (Homo sapiens) (UniProt P29317); settings: Compound concentration 1000.0 nM
[10] = molecular target: Receptor tyrosine-protein kinase erbB-2 (Homo sapiens) (UniProt P04626); settings: Compound concentration 1000.0 nM
[11] = molecular target: Tyrosine-protein kinase Fer (Homo sapiens) (UniProt P16591); settings: Compound concentration 1000.0 nM
[12] = test system: Receptor-type tyrosine-protein kinase FLT3 (Homo sapiens), P36888 [K663Q]; settings: Compound concentration 1000.0 nM
[13] = molecular target: Tyrosine-protein kinase Fyn (Homo sapiens) (UniProt P06241); settings: Compound concentration 1000.0 nM
[14] = molecular target: Rhodopsin kinase GRK1 (Homo sapiens) (UniProt Q15835); settings: Compound concentration 1000.0 nM
[15] = molecular target: Interleukin-1 receptor-associated kinase 3 (Homo sapiens) (UniProt Q9Y616); settings: Compound concentration 1000.0 nM
[16] = test system: Mast/stem cell growth factor receptor Kit (Homo sapiens), P10721 [A829P]; settings: Compound concentration 1000.0 nM
[17] = test system: Mast/stem cell growth factor receptor Kit (Homo sapiens), P10721 [V559D,V654A]; settings: Compound concentration 1000.0 nM
[18] = molecular target: Serine/threonine-protein kinase STK11 (Homo sapiens) (UniProt Q15831); settings: Compound concentration 1000.0 nM
[19] = molecular target: Leukocyte tyrosine kinase receptor (Homo sapiens) (UniProt P29376); settings: Compound concentration 1000.0 nM
[20] = molecular target: MAP kinase-activated protein kinase 2 (Homo sapiens) (UniProt P49137); settings: Compound concentration 1000.0 nM
[21] = molecular target: Dual specificity mitogen-activated protein kinase kinase 4 (Homo sapiens) (UniProt P45985); settings: Compound concentration 1000.0 nM
[22] = molecular target: Hepatocyte growth factor receptor (Homo sapiens) (UniProt P08581); settings: Compound concentration 1000.0 nM
[23] = molecular target: Serine/threonine-protein kinase MRCK alpha (Homo sapiens) (UniProt Q5VT25); settings: Compound concentration 1000.0 nM
[24] = molecular target: Serine/threonine-protein kinase 26 (Homo sapiens) (UniProt Q9P289); settings: Compound concentration 1000.0 nM
[25] = molecular target: Mitogen-activated protein kinase 12 (Homo sapiens) (UniProt P53778); settings: Compound concentration 1000.0 nM
[26] = molecular target: Serine/threonine-protein kinase PAK 5 (Homo sapiens) (UniProt Q9P286); settings: Compound concentration 1000.0 nM
[27] = molecular target: Cyclin-dependent kinase 18 (Homo sapiens) (UniProt Q07002); settings: Compound concentration 1000.0 nM
[28] = molecular target: Phosphatidylinositol 4-phosphate 3-kinase C2 domain-containing subunit beta (Homo sapiens) (UniProt O00750); settings: Compound concentration 1000.0 nM
[29] = test system: Phosphatidylinositol 4,5-bisphosphate 3-kinase catalytic subunit alpha isoform (Homo sapiens), P42336 [Q546K]; settings: Compound concentration 1000.0 nM
[30] = molecular target: Serine/threonine-protein kinase pim-2 (Homo sapiens) (UniProt Q9P1W9); settings: Compound concentration 1000.0 nM
[31] = molecular target: Phosphatidylinositol 5-phosphate 4-kinase type-2 beta (Homo sapiens) (UniProt P78356); settings: Compound concentration 1000.0 nM
[32] = molecular target: Membrane-associated tyrosine- and threonine-specific cdc2-inhibitory kinase (Homo sapiens) (UniProt Q99640); settings: Compound concentration 1000.0 nM
[33] = molecular target: Serine/threonine-protein kinase PLK2 (Homo sapiens) (UniProt Q9NYY3); settings: Compound concentration 1000.0 nM
[34] = molecular target: Protein kinase C theta type (Homo sapiens) (UniProt Q04759); settings: Compound concentration 1000.0 nM
[35] = molecular target: Proto-oncogene tyrosine-protein kinase ROS (Homo sapiens) (UniProt P08922); settings: Compound concentration 1000.0 nM
[36] = molecular target: Ribosomal protein S6 kinase alpha-1 (Homo sapiens) (UniProt Q15418); settings: Compound concentration 1000.0 nM
[37] = molecular target: Ribosomal protein S6 kinase alpha-3 (Homo sapiens) (UniProt P51812); settings: Compound concentration 1000.0 nM
[38] = molecular target: Ribosomal protein S6 kinase alpha-2 (Homo sapiens) (UniProt Q15349); settings: Compound concentration 1000.0 nM
[39] = molecular target: Serine/threonine-protein kinase SIK1 (Homo sapiens) (UniProt P57059); settings: Compound concentration 1000.0 nM
[40] = molecular target: Tyrosine-protein kinase SYK (Homo sapiens) (UniProt P43405); settings: Compound concentration 1000.0 nM
[41] = molecular target: Wee1-like protein kinase (Homo sapiens) (UniProt P30291); settings: Compound concentration 1000.0 nM
[42] = molecular target: 5-hydroxytryptamine receptor 2C (Homo sapiens) (UniProt P28335); settings: Compound concentration 10.0 uM
[43] = molecular target: Histamine H1 receptor (Homo sapiens) (UniProt P35367); settings: Compound concentration 10.0 uM
[44] = molecular target: Histamine H4 receptor (Homo sapiens) (UniProt Q9H3N8); settings: Compound concentration 10.0 uM
[45] = molecular target: Beta-3 adrenergic receptor (Homo sapiens) (UniProt P13945); settings: Compound concentration 10.0 uM

Chain of Sodium-dependent dopamine transporter (Q01959 whole entry): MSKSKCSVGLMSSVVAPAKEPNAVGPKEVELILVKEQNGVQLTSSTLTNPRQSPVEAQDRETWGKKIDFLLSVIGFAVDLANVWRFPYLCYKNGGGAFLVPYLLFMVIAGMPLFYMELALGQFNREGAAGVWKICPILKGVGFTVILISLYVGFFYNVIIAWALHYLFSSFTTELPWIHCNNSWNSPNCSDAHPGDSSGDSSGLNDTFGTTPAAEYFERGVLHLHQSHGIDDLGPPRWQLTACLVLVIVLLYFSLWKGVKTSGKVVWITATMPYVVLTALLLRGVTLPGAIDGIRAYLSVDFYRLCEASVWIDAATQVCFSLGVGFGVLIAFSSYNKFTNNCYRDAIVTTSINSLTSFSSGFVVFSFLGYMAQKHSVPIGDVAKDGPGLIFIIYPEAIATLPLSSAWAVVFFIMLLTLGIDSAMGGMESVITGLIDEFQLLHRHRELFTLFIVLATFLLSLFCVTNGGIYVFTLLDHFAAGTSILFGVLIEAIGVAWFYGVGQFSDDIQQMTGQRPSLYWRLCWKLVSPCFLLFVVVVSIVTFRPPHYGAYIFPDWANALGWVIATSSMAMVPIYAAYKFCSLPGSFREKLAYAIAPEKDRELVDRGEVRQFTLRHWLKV
Chain of Proto-oncogene tyrosine-protein kinase ROS (Homo sapiens) (P08922 whole entry): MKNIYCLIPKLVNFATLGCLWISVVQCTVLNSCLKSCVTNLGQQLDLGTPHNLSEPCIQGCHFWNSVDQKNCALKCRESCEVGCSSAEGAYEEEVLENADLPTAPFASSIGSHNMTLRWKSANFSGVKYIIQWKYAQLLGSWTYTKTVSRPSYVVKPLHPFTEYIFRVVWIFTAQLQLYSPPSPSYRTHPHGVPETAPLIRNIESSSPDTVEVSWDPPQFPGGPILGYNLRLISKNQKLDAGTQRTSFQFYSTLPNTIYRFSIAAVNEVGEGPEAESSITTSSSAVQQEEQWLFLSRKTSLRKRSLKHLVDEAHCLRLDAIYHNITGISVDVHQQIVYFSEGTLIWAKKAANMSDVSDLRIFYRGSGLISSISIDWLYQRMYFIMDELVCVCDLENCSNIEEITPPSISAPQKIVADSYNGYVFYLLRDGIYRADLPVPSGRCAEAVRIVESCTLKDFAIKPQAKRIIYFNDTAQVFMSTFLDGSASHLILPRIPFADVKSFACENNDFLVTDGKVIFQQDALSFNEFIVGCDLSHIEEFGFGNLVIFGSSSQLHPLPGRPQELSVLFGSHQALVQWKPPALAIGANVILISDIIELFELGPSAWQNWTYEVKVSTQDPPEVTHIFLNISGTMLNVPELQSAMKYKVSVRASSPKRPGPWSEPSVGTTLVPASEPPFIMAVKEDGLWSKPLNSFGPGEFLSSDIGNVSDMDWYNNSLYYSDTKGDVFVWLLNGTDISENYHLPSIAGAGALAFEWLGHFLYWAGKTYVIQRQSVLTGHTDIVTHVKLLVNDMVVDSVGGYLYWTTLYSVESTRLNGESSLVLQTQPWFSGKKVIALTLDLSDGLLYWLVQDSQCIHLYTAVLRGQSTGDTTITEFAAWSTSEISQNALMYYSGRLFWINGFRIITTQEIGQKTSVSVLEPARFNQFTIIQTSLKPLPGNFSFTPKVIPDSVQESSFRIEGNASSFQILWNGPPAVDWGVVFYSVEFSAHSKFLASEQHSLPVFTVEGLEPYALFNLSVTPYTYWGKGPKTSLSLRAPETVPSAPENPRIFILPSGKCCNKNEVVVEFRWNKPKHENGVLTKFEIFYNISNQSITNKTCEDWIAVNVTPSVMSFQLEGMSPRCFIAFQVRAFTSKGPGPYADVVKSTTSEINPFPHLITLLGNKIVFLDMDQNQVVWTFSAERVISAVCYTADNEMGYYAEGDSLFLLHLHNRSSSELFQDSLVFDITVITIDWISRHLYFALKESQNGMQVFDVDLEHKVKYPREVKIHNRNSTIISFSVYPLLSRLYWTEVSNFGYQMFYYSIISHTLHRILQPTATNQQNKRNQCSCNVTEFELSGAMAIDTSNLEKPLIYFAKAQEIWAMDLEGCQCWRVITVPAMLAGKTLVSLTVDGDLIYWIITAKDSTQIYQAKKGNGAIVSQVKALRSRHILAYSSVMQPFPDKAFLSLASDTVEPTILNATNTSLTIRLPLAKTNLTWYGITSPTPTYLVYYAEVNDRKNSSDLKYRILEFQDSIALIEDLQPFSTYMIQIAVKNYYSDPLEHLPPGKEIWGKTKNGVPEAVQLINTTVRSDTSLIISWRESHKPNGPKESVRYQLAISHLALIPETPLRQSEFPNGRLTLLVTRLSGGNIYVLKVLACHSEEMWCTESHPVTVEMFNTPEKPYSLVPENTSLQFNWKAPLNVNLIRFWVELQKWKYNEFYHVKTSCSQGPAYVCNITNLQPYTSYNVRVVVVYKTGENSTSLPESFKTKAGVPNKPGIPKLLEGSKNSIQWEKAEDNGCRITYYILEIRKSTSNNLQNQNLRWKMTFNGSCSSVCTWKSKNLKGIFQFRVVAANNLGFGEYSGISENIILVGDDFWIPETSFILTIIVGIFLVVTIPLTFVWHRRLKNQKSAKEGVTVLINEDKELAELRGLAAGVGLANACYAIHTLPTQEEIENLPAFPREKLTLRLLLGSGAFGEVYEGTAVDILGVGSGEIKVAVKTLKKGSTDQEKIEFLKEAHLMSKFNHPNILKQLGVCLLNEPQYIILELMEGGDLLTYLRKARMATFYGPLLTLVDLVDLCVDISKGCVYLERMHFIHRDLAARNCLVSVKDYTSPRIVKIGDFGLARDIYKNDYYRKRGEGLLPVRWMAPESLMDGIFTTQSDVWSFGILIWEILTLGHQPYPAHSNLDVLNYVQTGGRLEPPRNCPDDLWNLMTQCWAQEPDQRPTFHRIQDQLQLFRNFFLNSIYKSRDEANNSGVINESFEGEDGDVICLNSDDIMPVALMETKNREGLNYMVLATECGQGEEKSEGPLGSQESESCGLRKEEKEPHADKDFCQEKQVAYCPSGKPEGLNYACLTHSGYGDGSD
Chain of MAP kinase-activated protein kinase 2 (Homo sapiens) (P49137 whole entry, looked up): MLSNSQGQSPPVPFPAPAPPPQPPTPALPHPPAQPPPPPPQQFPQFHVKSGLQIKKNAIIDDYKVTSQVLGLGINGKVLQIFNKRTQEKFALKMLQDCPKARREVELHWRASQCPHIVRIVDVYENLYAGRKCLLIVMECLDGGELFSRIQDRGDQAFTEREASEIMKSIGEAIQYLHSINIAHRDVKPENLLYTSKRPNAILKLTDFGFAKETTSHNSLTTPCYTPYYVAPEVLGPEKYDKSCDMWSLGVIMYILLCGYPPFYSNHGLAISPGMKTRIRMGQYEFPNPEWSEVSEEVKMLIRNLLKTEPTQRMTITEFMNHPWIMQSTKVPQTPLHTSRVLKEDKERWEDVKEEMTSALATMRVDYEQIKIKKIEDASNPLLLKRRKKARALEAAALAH
Chain of Dual specificity mitogen-activated protein kinase kinase 4 (Homo sapiens) (P45985 whole entry): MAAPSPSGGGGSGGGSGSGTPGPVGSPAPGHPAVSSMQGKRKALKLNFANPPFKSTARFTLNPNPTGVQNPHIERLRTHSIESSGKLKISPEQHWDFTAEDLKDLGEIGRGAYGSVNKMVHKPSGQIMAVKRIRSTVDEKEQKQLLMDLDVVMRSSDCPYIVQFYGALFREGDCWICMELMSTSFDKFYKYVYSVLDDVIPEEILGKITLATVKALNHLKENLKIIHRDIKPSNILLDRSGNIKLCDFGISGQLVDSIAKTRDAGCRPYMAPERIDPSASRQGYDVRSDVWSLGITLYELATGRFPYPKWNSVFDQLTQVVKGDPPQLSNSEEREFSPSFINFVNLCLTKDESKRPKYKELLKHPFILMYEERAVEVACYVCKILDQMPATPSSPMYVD
Chain of Cyclin-dependent kinase 11A (Homo sapiens) (Q9UQ88 whole entry): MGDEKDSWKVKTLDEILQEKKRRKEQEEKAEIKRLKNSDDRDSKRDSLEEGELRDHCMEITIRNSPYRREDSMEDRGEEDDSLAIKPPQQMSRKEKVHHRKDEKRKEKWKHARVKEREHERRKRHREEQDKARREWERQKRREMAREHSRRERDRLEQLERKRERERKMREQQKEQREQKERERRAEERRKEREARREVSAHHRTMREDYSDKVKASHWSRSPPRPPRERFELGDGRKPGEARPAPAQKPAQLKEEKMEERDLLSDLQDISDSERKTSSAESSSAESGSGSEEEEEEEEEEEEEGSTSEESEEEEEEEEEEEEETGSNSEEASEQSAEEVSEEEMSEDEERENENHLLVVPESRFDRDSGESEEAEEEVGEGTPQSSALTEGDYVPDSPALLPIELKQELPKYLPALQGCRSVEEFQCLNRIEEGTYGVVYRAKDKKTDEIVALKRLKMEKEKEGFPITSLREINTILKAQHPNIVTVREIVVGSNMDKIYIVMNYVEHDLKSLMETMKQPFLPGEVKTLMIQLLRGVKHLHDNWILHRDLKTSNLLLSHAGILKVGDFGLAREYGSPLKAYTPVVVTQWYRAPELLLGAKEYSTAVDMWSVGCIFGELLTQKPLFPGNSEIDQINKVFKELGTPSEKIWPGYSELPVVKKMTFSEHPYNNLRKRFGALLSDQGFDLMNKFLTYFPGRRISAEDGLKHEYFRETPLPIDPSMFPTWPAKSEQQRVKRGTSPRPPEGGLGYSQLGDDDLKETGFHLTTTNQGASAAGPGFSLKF
Chain of 5-hydroxytryptamine receptor 2C (Homo sapiens) (P28335 whole entry): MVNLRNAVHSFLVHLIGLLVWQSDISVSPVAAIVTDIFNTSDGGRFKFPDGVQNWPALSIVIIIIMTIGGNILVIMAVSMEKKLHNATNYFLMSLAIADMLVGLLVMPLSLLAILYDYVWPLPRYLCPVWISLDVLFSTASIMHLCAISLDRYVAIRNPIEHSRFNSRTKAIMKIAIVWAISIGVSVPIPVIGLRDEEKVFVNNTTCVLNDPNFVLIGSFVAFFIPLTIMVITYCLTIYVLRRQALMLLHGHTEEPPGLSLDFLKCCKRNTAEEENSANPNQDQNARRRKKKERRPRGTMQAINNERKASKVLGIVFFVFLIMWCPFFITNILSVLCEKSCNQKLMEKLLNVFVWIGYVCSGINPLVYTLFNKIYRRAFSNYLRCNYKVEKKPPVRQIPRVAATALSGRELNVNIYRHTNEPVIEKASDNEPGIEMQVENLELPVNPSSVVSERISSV

With `Cc1nc(N2CC[C@@H](O)C2)ncc1-c1cc(C(F)(F)F)cc2[nH]ncc12` [TP-004] the Ki ([1]; read-out: Ki) was 1680 nM, the Ki ([1]; read-out: pKi (converted)) was 1580 nM and the residual activity [2] was 83%. For the same compound, the residual activity [3] was 63%, the residual activity [4] was 100% and the residual activity [5] was 100%. The residual activity [6] was 99%, the residual activity [7] was 83% and the residual activity [8] was 73%. It also gave a residual activity [9] of 100%, a residual activity [10] of 87% and a residual activity [11] of 97%. For the same compound, the residual activity [12] was 89%, the residual activity [13] was 100% and the residual activity [14] was 52%. For the same compound, the residual activity [15] was 85%, the residual activity [16] was 60% and the residual activity [17] was 94%. It also gave a residual activity [18] of 100%, a residual activity [19] of 87% and a residual activity [20] of 95%. It also gave a residual activity [21] of 97%, a residual activity [22] of 100% and a residual activity [23] of 100%. For the same compound, the residual activity [24] was 59%, the residual activity [25] was 100% and the residual activity [26] was 99%. For the same compound, the residual activity [27] was 100%, the residual activity [28] was 100% and the residual activity [29] was 82%. It also gave a residual activity [30] of 89%, a residual activity [31] of 100% and a residual activity [32] of 100%. The residual activity [33] was 76%, the residual activity [34] was 100% and the residual activity [35] was 86%. It also gave a residual activity [36] of 100%, a residual activity [37] of 48% and a residual activity [38] of 100%. It also gave a residual activity [39] of 90%, a residual activity [40] of 100% and a residual activity [41] of 73%. The inhibition [42] was -0.722%, the inhibition [43] was 0.239% and the inhibition [44] was 12%. For the same compound, the inhibition [45] was 20.7%.
